pIC50: −log10 of the molar value.
What was measured:
[1] = tested on: Gmr::HTT97Q fly (mutant HTT, rough eye); test: HD-Drosophila phenotypic assay (rough eye analysis); format: in vivo, Drosophila melanogaster; conditions: Gmr-HTT97Q flies, compound 10 μM in media
Description: D. Alleviation of Neuron Degeneration Phenotypes of Mutant HTT in Drosophila HD Models
The Drosophila melanogaster (fruit fly) HD models carry the coding sequence of human HTT exon1 with 97 CAG repeats to mimic mutant HTT of Huntington's disease (HD). The Gmr::HTT97Q fly, expressing mutant HTT primarily in the neurons of Drosophila compound eyes, has a severe degeneration of photoreceptor neurons and the phenotypic trait ‘rough eye’. All of the fly stocks and genetics crosses are maintained at 25° C. on standard cornmeal yeast agar media.
b. Eye Morphology (Rough Eye) Analysis
Fifteen adult male flies (Gmr-HTT97Q/Gmr-HTT97Q or Gmr/Gmr) are crossed with 15 virgin female flies W1118(+/+) in a vial containing standard yeast agar media with the compound in a concentration of 10 μM. Parent-flies are removed from vials at day 7, followed by a collection of newly hatched flies for ‘rough eye’ analysis. The morphology of compound eyes is captured using a Leica DMR upright microscope equipped with a digital camera (CoolSNAP 5.0, Photometrics). To increase the depth of field, imaging software is used to create montage composite images (Helicon Focus, HeliconSoft). A total of 10 flies are collected for analysis in each individual condition, and the biological experiment is conducted three times. DMSO, the reagent solvent of the compound, is included as a control.

mutant HTT [2] = test: Mutant HTT assay in induced pluripotent stem cells (iPSC); format: cell-based, human; conditions: HD patient iPSCs, one day incubation, read-out: iPSC IC20 (nM) mHTT
In short: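 Huntington's disease patient iPSCs (ND50036) plated at 7,000 cells/well, compound-treated after 48 h for one day in mTeSR1. Lysates normalised by BCA protein, then mutant HTT measured by sandwich ELISA: anti-human HTT capture, biotinylated mutant-HTT-specific detection, streptavidin-HRP/TMB colorimetric readout, interpolated from a standard curve.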

[3] = target: T1, interaction between Supt4h and NGN (subunit of Supt5h) (Homo sapiens, UniProt O00267+P63272); test: Split Gaussia luciferase complementation assay (M2-8 Luciferase); format: cell-based; conditions: M2-8 cells
T1 construct: expressed in transfected cells
In short: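 HEK293-derived M2-8 cells inducibly express Supt4h-Gluc1 and NGN-Gluc2 fragments (stabilizing mutations) on RheoSwitch ligand addition; ligand plus compound added 24 h after plating and left 24 h. Cells frozen, lysed with 10 μg/ml native coelenterazine, 1 h room temperature dark; complemented luciferase luminescence read.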

M2-8 cells = test: M2-8 Cell viability Assay; format: cell-based; conditions: at the concentration of 1000 nM
mutant HTT [4] = test: Mutant HTT assay in lymphoblastoid cells (LBC), Western blot; format: cell-based, human; conditions: read-out: LBC IC20 (nM) mHTT, 3 days compound treatment
In short: (§1)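 HD patient lymphoblastoid cells (GM14044, 250 CAG repeats in mutant allele) treated with compound for 3 days. Lysates normalised by BCA, run on SDS-PAGE and immunoblotted: mutant HTT with anti-polyQ MW1, wild-type HTT with anti-Huntingtin antibody, TBP and tubulin also probed. Band intensities quantified by infrared imaging.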

wild-type HTT = test: Wild-type HTT assay in lymphoblastoid cells (LBC), Western blot; format: cell-based, human; conditions: 3 days compound treatment, read-out: LBC IC20 (nM) wtHTT
In short: as §1

[5] = tested on: Lymphoblastoid cells (GM14044); test: LBC cell viability (Cell Titer-Glo); format: cell-based, human; conditions: at the concentration of IC20, 3-day compound treatment
Description: Cell viability was determined by Cell Titer-Glo reagent (Promega, PRG9243). After 3-day compound treatment, 15 μl of cell suspension was taken out from plate and incubated with 10 μl of CTG reagent. The values of reaction mixture were detected by Tecan.

[6] = tested on: Huntington's disease patient iPSCs (ND50036); test: iPSC viability at IC20; format: cell-based, human; conditions: at the concentration of IC20
mouse hepatocytes = test: In vitro metabolic stability in mouse hepatocytes; format: in vitro ADME
Description: A. In Vitro Metabolic Stability in Hepatocyte
A compound's metabolic stability was assessed using mouse hepatocytes incubated with pre-defined concentration of test articles over several incubation period. The extent of metabolism was calculated from the disappearance of the test compound measured by liquid chromatography mass spectrometry (LC-MS), compared to that of 0-min control. After incubation, quench solutions including internal standards were added and analyzed by LC/MS. The elimination rate constant and intrinsic clearance (CLhepatocyte) values were calculated by linear regression of the compound elimination over the duration of incubation, normalized to the cell number in the given volume of incubation medium.

| SMILES | HD-Drosophila Phenotypic assay (rescue of rough eye phenotype) [1] | IC20 (mutant HTT [2]; numeric bounds) [nM] | pIC50 [3] | M2-8 Cell viability (M2-8 cells) | IC20 (mutant HTT [4]) [nM] | IC20 (wild-type HTT) [nM] | LBC viability at IC20 [5] | iPSC viability at IC20 [6] | IC20 (mutant HTT [2]; class symbols) [nM] | Mouse HepStability (CLhepatocyte) (mouse hepatocytes) |
| --- | --- | --- | --- | --- | --- | --- | --- | --- | --- | --- |
| OCc1ccc(CN[C@H]2CCCc3c2[nH]c2ccc(Br)cc32)cc1 [Compound 3] | @ (rough eye phenotype of HD flies is rescued by testing compound less than 40%) | > 100 | < 6.00 | + (cell viability is greater than 50% at the concentration of 1000 nM) | > 1000 | > 1000 | – | – | – | – |
| OB(O)c1ccc(CN[C@@H]2CCCc3c2[nH]c2ccc(Br)cc32)cc1 [Compound 38, (R)-(4-(((6-bromo-2,3,4,9-tetrahydro-1H-carbazol-1-yl)amino)methyl)phenyl)boronic acid] | – | – | ≥ 7.00 | + (cell viability is greater than 50% at the concentration of 1000 nM) | 101 to 300 | > 1000 | * (cell viability is greater than 60% at the concentration of IC20) | + (cell viability is greater than 75% at the concentration of IC20) | < 100 | C (CLhepatocyte >30 μl/min/10^6cells) |

From patent US20220062233A1 (The Board of Trustees of the Leland Stanford Junior …, priority 2018, published 2022)
